In patent publication US20070185152A1, “Inhibitors of akt activity” (Smithkline Beecham Corporation, priority 2004, published 2007):

Target: T1, AKT1 (Homo sapiens, UniProt P31749)
T1 construct: Insect cells expressing His-tagged AKT1 (aa 136-480) were lysed; His; made in house; host or cells: insect cells
Test: AKT1 kinase inhibition assay (substrate phosphorylation, SPA)
Format: biochemical
Conditions: catalytic domain of AKT1; 10 nM activated AKT enzyme, 4 uM ATP, 8 uM peptide, 40 minutes at room temperature
Procedure: Isolation and Purification of His-tagged AKT1 (aa 136-480)
Insect cells expressing His-tagged AKT1 (aa 136-480) were lysed in 25 mM HEPES, 100 mM NaCl, 20 mM imidazole; pH 7.5 using a polytron (5 mLs lysis buffer/g cells). Cell debris was removed by centrifuging at 28,000×g for 30 minutes. The supernatant was filtered through a 4.5-micron filter then loaded onto a nickel-chelating column pre-equilibrated with lysis buffer. The column was washed with 5 column volumes (CV) of lysis buffer then with 5 CV of 20% buffer B, where buffer B is 25 mM HEPES, 100 mM NaCl, 300 mM imidazole; pH 7.5. His-tagged AKT1 (aa 136-480) was eluted with a 20-100% linear gradient of buffer B over 10 CV. […]
Compounds of the present invention are tested for AKT 1, 2, and 3 protein serine kinase inhibitory activity in substrate phosphorylation assays. […] Substrate phosphorylation is detected by the following procedure:
Assays are performed in 384well U-bottom white plates. […] The reaction is stopped by the addition of 50 ul SPA bead mix (Dulbecco's PBS without Mg^2+ and Ca^2+, 0.1% Triton X-100, 5 mM EDTA, 50 uM ATP, 2.5 mg/ml Streptavidin-coated SPA beads.) The plate is sealed, the beads are allowed to settle overnight, and then the plate is counted in a Packard Topcount Microplate Scintillation Counter (Packard Instrument Co., Meriden, Conn.). […]

T1 sequence (P31749 136-480): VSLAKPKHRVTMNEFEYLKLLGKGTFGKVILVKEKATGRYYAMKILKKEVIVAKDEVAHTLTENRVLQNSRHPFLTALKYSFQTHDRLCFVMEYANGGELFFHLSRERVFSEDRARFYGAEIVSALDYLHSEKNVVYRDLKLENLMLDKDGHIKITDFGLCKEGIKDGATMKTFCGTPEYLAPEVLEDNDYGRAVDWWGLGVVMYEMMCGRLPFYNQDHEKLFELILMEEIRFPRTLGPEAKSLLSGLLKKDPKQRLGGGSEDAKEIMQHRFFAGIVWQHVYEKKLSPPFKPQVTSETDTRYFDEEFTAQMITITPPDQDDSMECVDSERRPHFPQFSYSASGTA

For `Cc1n[nH]c2ccc(-c3cc(OC[C@@H](N)Cc4ccccc4)cnc3-c3ccccc3)cc12` [Example 1, (S)-1-Benzyl-2-[5-(3-methyl-1H-indazol-5-yl)-6-phenyl-pyridin-3-yloxy]-ethylamine], the IC50 was 182 nM.
